# Experimental data taken from article PMC3529809 (Steroids, 2012).
# Entries after “also recorded” stand apart in the source; their conditions may differ.
# Legend:
# ERβ = conditions: expressed in COS-1 cells, cited from earlier work
# [1] = tested on: ERα+ MCF-7 and triple-negative MDA-MB-231 and Hs578T breast cancer cells; conditions: 100 µM; cited from earlier work
# NRF1 (NRF-1) expression = assay: QRT-PCR of NRF1 in ERβ-transfected HepG2 cells; type: cell-based, human; conditions: 10 nM E2 or 5 µM sterol, 24 h, Fig. 5B
# human ERβ [2] = biological target: T1, human ERβ (Homo sapiens, UniProt Q92731); assay: [3H] E2 ligand binding competition; conditions: IC50 for ERβ, competition with 30 nM [3H] E2, Fig. 6B
# [3] = tested on: ZR-75-1 breast cancer xenografts; conditions: twice daily s.c. injections of 0.3 mg, nude mice; cited from earlier work
# [4] = tested on: NMU and DMBA induced tumors of the mammary gland; conditions: oral, rats; cited from earlier work
# [5] = tested on: TFF1 (pS2), PGR (PR), CTSD (cathepsin D) transcription; assay: QRT-PCR of endogenous ER-target genes in ERα-transfected HEK-293 cells; type: cell-based, human; conditions: 10 nM E2 or 5 µM sterol, 24 h, Fig. 5A
# [6] = tested on: diethylnitrosamine-induced hepatic tumors; conditions: 0.6% in the diet, rats; cited from earlier work
# MCF-7 cells = conditions: cited from earlier work
# human ERβ [7] = biological target: T1, human ERβ; assay: ERELUC transient transfection reporter assay, ERβ in HepG2 cells; type: cell-based; conditions: 5 µM, 24 h, Fig. 1B; result in words
# [8] = tested on: MCF-7 human breast cancer cells; assay: Cell proliferation BrdU assay; type: cell-based; conditions: 48 h BrdU; 10 nM E2, 5 µM sterols; Fig. 7
# T1 sequence (Q92731 whole entry): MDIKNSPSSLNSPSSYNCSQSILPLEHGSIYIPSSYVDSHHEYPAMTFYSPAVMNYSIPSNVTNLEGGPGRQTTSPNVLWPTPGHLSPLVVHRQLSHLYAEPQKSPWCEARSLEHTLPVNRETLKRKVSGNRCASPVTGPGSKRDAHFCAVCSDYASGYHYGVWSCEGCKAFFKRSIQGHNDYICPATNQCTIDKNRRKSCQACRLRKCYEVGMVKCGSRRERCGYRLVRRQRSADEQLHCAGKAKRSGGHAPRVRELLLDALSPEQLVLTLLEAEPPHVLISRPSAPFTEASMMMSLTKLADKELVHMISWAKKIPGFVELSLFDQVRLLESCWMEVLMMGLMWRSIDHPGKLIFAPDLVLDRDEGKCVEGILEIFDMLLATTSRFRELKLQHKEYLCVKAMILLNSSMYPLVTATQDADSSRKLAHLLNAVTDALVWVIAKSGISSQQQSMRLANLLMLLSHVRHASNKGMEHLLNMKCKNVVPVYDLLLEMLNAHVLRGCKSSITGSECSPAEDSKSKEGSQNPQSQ
structure (smiles),measurement,setting,value
"C[C@]12CC[C@H](O)CC1=CC[C@@H]1[C@@H]2CC[C@]2(C)C(=O)CC[C@@H]12 [DHEA, 3β-hydroxy-androst-5-ene-17-one]",Kd,ERβ; read-out: Kd for ERβ,~500 nM
same,Ki,ERβ; read-out: Ki for ERβ,~500 nM
same,"proliferation, cell cycle progression and migration",[1],inhibit
same,NRF-1 mRNA expression,NRF1 (NRF-1) expression,statistically significant increase; also recorded: low induction
same,IC50,human ERβ [2],500000 nM
same,estrone-stimulated growth of xenografts,[3],suppressed
same,effect in the mammary gland after chemical induction of tumors,[4],anti-carcinogenic effects
same,CTSD (cathepsin D) expression,[5],increased
same,PGR (PR) expression,[5],increased
same,TFF1 (pS2) expression,[5],increased
same,tumor cell growth,[6],inhibited tumor cell growth
same,proliferation of MCF-7 cells,MCF-7 cells; 1–10 µM concentrations,stimulated proliferation
same,MCF-7 cell growth,"MCF-7 cells; DHEA 0.5 µM, ADIOL 2 nM",stimulated
same,MCF-7 cell proliferation,MCF-7 cells; less than E2,increased cell proliferation
same,ERELUC activity in ERβ-expressing HepG2 cells,human ERβ [7],significantly induced
same,MCF-7 cell proliferation,[8],increased
